Results taken from patent US4241069A, “3-Methylene flavanones and 3-methylene chromanones” (Miles Laboratories, Inc., priority 1979, dated 1980).
In brackets after ≈: the same amount, converted by molar mass.

How the values were obtained:
Test in all cases: MIC, agar incorporation method
[1] = test system: Staphylococcus aureus ATCC 6538; assay type: cell-based; settings: Staphylococcus aureus, ATCC6538; S. aureus ATCC 6538; 32° C., 24 hours; read-out: Minimal Inhibitory Concentration
Protocol: (§1) The compounds of the present invention were tested for their ability to inhibit the growth of microorganisms by in vitro tests. Generally the in vitro tests involve growing representative microorganisms under conditions favorable to such growth and measuring the effectiveness of one or more compounds in inhibiting or destroying the growth of the microorganisms. The microorganisms used include representative bacteria, fungi and yeasts.
(§2) A representative selection of the test microorganisms were cultured in a nutrient broth, such as, for example, Eugon, commercially available from Difco Laboratories, Detroit, Michigan. Bacteria and Candida species were cultured for 24 hours at 32°-37° C. and fungi were cultured for approximately one week at 32° C. Inocula were prepared by suspending the growth or spores from a slant culture in sufficient sterile normal (0.9 percent) saline or Eugon broth, to yield cell or spore concentrations of 1,000,000 cells per milliliter. Anaerobic bacteria were cultured for 48-72 hours at 32°-37° C. in a thioglycollate containing medium, for example, Fluid Thioglycollate medium or NIH thioglycollate broth, commercially available from Difco Laboratories.
(§3) The compounds of the present invention were tested for activity against bacteria, yeasts and fungi by the agar incorporation method described below. MA 1347, 3-(dimethylaminomethyl)flavanone (disclosed in U.S. Pat. No. 3,753,985) was used as a comparative standard along with controls for each solvent system used.
(§4) A series of agar plates containing two-fold dilutions of each compound to be tested, ranging in concentration from 100 to 3.1 mcg/ml of agar medium was prepared. Aliquots of each concentration (100, 50, 25, 12.5, 6.2, and 3.1) prepared in N,N-dimethylformamide or 50 percent aqueous DMF were added to liquid Eugon agar at 48° C. (one part test solution to 100 parts agar). In some cases, tests with further dilutions to 0.125 mcg/ml were conducted. The agar medium, containing the 3-methylene flavanone or chromanone compound to be tested, was then dispensed into petri dishes and allowed to solidify. The solidified plates were kept overnight at room temperatures to dry the surface of the agar.
(§5) The agar plates were then inoculated with a drop of the standardized cell or spore suspension. Inoculated plates were incubated at 32° C. The inhibition end-point or minimum inhibitory concentration (MIC) shown in Table D represent the lowest concentration of test compound which inhibited the growth of the microorganism. Visual determination of growth inhibition was used. Bacteria and yeast end-points were determined after 24 hours incubation; molds, dermatophytes and anaerobes after 48-72 hours incubation. MIC values shown as ranges represent the extremes found in repeat assays. Virtually all such values were written plus or minus one dilution, the accepted variation of a two-fold dilution assay.

[2] = test system: T. mentagrophytes TM-2; assay type: cell-based; settings: Trichophyton mentagrophytes, TM2, 32° C., 48-72 hours, read-out: Minimal Inhibitory Concentration
Protocol: as §1, §2, §3, §4, §5

[3] = test system: Trichophyton mentagrophytes ATCC 4807; assay type: cell-based; settings: ATCC4807, 32° C., 48-72 hours, read-out: Minimal Inhibitory Concentration
Protocol: as §1, §2, §3, §4, §5

[4] = test system: T. mentagrophytes CDC; assay type: cell-based; settings: Trichophyton mentagrophytes, 32° C., 48-72 hours, read-out: Minimal Inhibitory Concentration
Protocol: as §1, §2, §3, §4, §5

[5] = test system: A. fumigatus NRRL 165; assay type: cell-based; settings: Aspergillus fumigatus, NRRL165, 32° C., 48-72 hours, read-out: Minimal Inhibitory Concentration
Protocol: as §1, §2, §3, §4, §5

[6] = test system: T. rubrum ATCC 10218; assay type: cell-based; settings: Trichophyton rubrum, ATCC10218; 32° C., 48-72 hours; read-out: Minimal Inhibitory Concentration
Protocol: as §1, §2, §3, §4, §5

[7] = test system: Aspergillus niger ATCC 16404; assay type: cell-based; settings: ATCC16404, 32° C., 48-72 hours, read-out: Minimal Inhibitory Concentration
Protocol: as §1, §2, §3, §4, §5

[8] = test system: Streptococcus faecalis ATCC 10541; assay type: cell-based; settings: Enterococcus faecalis, ATCC10541; 32° C., 24 hours; read-out: Minimal Inhibitory Concentration
Protocol: as §1, §2, §3, §4, §5

[9] = test system: C. guillermondii VM 42; assay type: cell-based; settings: 32° C., 24 hours; read-out: Minimal Inhibitory Concentration
Protocol: as §1, §2, §3, §4, §5

[10] = test system: C. tropicalis NRRL Y1410; assay type: cell-based; settings: Candida tropicalis, NRRLY1410; 32° C., 24 hours; read-out: Minimal Inhibitory Concentration
Protocol: as §1, §2, §3, §4, §5

[11] = test system: C. albicans NRRL Y-477; assay type: cell-based; settings: Candida albicans, NRRLY477, 32° C., 24 hours, read-out: Minimal Inhibitory Concentration
Protocol: as §1, §2, §3, §4, §5

[12] = test system: Escherichia coli ATCC 8739; assay type: cell-based; settings: ATCC8739, 32° C., 24 hours, read-out: Minimal Inhibitory Concentration
Protocol: as §1, §2, §3, §4, §5

[13] = test system: Pseudomonas aeruginosa ATCC 14502; assay type: cell-based; settings: ATCC14502, 32° C., 24 hours, read-out: Minimal Inhibitory Concentration
Protocol: as §1, §2, §3, §4, §5

[14] = test system: C. krusei VM 29B; assay type: cell-based; settings: Pichia kudriavzevii, VM29B; 32° C., 24 hours; read-out: Minimal Inhibitory Concentration
Protocol: as §1, §2, §3, §4, §5

[15] = test system: Microsporum gypseum ATCC 14683; assay type: cell-based; settings: Nannizzia gypsea, ATCC14683, 32° C., 48-72 hours; read-out: Minimal Inhibitory Concentration
Protocol: as §1, §2, §3, §4, §5

[16] = test system: Candida albicans ATCC 10231; assay type: cell-based; settings: ATCC10231, C. albicans ATCC 10231, 32° C., 24 hours, read-out: Minimal Inhibitory Concentration
Protocol: as §1, §2, §3, §4, §5

[17] = test system: S. aureus NRRL B2747; assay type: cell-based, Staphylococcus aureus; settings: Staphylococcus aureus, NRRLB2747, 32° C., 24 hours, read-out: Minimal Inhibitory Concentration
Protocol: as §1, §2, §3, §4, §5

Row | MIC [1] [µg/mL] | MIC [2] [µg/mL] | MIC [3] [µg/mL] | MIC [4] [µg/mL] | MIC [5] [µg/mL] | MIC [6] [µg/mL] | MIC [7] [µg/mL] | MIC [8] [µg/mL] | MIC [9] [µg/mL] | MIC [10] [µg/mL] | MIC [11] [µg/mL] | MIC [12] [µg/mL] | MIC [13] [µg/mL] | MIC [14] [µg/mL] | MIC [15] [µg/mL] | MIC [16] [µg/mL] | MIC [17] [µg/mL] | Structure (SMILES)
1 | ≤ 3.1 | 12.5 (≈ 43.7 µM) | 6.2 (≈ 21.7 µM) | 12.5 (≈ 43.7 µM) | > 100 | 6.2 (≈ 21.7 µM) | > 100 | 50 (≈ 175 µM) | > 100 | > 100 | 100 (≈ 349 µM) | > 100 | > 100 | 50 (≈ 175 µM) | 6.2 (≈ 21.7 µM) | > 100 | 6.2 (≈ 21.7 µM) | C=C1C(=O)c2ccccc2OC1c1cccc2ccccc12 (stereo not drawn) [Ex. 23, 3-methylene-2-(1-naphthyl) chromanone]
2 | 6.2 (≈ 22 µM) | 6.2 (≈ 22 µM) | 12.5 (≈ 44.4 µM) | 12.5 (≈ 44.4 µM) | 100 (≈ 356 µM) | 6.2 (≈ 22 µM) | 50 (≈ 178 µM) | 50 (≈ 178 µM) | 100 (≈ 356 µM) | 50 (≈ 178 µM) | 50 (≈ 178 µM) | > 100 | > 100 | 50 (≈ 178 µM) | 6.2 (≈ 22 µM) | 50 (≈ 178 µM) | 6.2 (≈ 22 µM) | C=C1C(=O)c2ccccc2OC1c1cccc([N+](=O)[O-])c1 (stereo not drawn) [compound 9, 3'-nitro-3-methylene flavanone]
3 | ≤ 3.1 | 12.5 (≈ 43.7 µM) | 12.5 (≈ 43.7 µM) | 25 (≈ 87.3 µM) | > 100 | 6.2 (≈ 21.7 µM) | > 100 | 50 (≈ 175 µM) | > 100 | > 100 | 100 (≈ 349 µM) | > 100 | > 100 | 25 (≈ 87.3 µM) | 12.5 (≈ 43.7 µM) | > 100 | 6.2 (≈ 21.7 µM) | C=C1C(=O)c2ccccc2OC1c1ccc2ccccc2c1 (stereo not drawn) [compound 24, 3-methylene-2-(2-naphthyl) chromanone]
